From publication PMC8151276, “An Integrated Approach toward NanoBRET Tracers for Analysis of GPCR Ligand Engagement” (Molecules, 2021)

Assays:
Type in all cases: binding
XCR1 = molecular target: T1, XCR1 (Homo sapiens, UniProt P46094); test: NanoBRET screen HiBiT-XCR1 in HEK293
T1 construct: purchased Promega (in-house HiBiT-GPCR construct library, NanoBRET)
T1 sequence (P46094 1-333): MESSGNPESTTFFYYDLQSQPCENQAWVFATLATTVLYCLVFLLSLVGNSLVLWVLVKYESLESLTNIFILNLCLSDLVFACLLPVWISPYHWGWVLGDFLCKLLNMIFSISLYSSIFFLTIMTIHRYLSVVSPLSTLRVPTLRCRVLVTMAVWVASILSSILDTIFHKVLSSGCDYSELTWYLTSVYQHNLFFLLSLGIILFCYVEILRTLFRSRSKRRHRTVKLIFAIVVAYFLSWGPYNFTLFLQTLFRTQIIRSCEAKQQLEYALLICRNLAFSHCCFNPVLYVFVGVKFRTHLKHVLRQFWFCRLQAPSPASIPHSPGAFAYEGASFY
Summary of the method: (§1)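 Competitive displacement format: low-expressing HiBiT-receptor HEK293 cells incubated 1.5 h at room temperature with tracer (1 or 0.1 μM final) ± 20 μM unlabelled parental compound, then complemented with extracellular LgBiT for NanoBRET.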

GRM8 = molecular target: T2, GRM8 (Homo sapiens, UniProt O00222); test: NanoBRET screen HiBiT-GRM8 in HEK293; conditions: GRM8
T2 construct: purchased Promega (in-house HiBiT-GPCR construct library, NanoBRET)
T2 sequence (O00222 34-908): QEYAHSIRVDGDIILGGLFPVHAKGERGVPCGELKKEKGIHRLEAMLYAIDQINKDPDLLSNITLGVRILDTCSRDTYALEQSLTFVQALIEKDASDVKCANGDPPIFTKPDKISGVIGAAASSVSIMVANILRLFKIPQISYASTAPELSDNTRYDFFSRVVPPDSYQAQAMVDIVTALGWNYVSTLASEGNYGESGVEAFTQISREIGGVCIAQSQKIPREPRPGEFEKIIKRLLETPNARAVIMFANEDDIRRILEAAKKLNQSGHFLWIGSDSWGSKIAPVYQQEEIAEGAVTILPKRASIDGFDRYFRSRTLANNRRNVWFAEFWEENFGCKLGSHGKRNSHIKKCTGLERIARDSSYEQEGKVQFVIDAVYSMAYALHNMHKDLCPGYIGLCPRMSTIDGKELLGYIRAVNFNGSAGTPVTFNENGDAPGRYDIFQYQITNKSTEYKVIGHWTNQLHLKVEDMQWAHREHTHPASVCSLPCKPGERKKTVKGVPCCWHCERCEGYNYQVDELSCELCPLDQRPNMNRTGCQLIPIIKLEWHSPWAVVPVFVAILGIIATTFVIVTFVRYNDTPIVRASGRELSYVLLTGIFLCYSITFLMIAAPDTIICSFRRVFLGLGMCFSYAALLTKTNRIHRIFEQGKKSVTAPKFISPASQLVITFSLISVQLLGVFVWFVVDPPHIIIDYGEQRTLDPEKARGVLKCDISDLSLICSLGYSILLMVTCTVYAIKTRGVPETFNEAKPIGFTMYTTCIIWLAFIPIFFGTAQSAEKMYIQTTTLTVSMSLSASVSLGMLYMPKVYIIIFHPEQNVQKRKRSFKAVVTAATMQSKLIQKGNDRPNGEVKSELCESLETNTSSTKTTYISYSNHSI
Summary of the method: as §1

HTR1B = molecular target: T3, HTR1B (Homo sapiens, UniProt P28222); test: NanoBRET screen HiBiT-HTR1B in HEK293
T3 construct: purchased Promega (in-house HiBiT-GPCR construct library, NanoBRET)
T3 sequence (P28222 whole entry): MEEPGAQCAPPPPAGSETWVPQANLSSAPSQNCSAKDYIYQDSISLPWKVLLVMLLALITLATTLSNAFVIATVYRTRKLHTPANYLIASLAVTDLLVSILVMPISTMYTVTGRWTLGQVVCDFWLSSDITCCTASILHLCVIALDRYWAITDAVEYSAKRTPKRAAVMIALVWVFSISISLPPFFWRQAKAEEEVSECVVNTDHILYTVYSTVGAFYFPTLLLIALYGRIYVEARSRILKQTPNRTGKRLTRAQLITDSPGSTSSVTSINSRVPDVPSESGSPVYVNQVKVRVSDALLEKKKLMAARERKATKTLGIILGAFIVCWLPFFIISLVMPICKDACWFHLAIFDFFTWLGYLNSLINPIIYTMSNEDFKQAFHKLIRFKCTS
Summary of the method: as §1

CXCR1 = molecular target: T4, CXCR1 (Homo sapiens, UniProt P25024); test: NanoBRET screen HiBiT-CXCR1 in HEK293
T4 construct: purchased Promega (in-house HiBiT-GPCR construct library, NanoBRET)
T4 sequence (P25024 1-350): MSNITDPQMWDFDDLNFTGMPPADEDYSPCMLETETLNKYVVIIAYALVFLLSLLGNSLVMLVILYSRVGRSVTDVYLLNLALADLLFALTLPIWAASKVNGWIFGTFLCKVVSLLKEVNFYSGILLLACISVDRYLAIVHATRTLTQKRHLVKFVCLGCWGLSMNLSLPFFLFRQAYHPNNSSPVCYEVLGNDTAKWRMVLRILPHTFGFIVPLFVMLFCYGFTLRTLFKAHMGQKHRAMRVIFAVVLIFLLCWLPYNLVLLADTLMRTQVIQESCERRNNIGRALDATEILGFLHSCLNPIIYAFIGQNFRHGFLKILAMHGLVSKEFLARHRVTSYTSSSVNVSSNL
Summary of the method: as §1

CCR1 = molecular target: T5, CCR1 (Homo sapiens, UniProt P32246); test: NanoBRET screen HiBiT-CCR1 in HEK293
T5 construct: purchased Promega (in-house HiBiT-GPCR construct library, NanoBRET)
T5 sequence (P32246 1-355): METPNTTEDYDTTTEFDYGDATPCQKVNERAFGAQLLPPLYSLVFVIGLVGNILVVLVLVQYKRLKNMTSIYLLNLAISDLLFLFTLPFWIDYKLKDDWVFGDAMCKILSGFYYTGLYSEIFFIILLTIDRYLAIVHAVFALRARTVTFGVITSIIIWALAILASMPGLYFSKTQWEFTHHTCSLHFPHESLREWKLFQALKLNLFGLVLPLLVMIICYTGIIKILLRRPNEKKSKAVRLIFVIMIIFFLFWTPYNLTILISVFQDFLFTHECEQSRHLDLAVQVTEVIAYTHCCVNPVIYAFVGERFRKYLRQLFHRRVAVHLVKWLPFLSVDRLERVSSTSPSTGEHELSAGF
Summary of the method: as §1

LHCGR = molecular target: T6, LHCGR (Homo sapiens, UniProt P22888); test: NanoBRET screen HiBiT-LHCGR in HEK293; conditions: LHCGR
T6 construct: purchased Promega (in-house HiBiT-GPCR construct library, NanoBRET)
T6 sequence (P22888 27-699): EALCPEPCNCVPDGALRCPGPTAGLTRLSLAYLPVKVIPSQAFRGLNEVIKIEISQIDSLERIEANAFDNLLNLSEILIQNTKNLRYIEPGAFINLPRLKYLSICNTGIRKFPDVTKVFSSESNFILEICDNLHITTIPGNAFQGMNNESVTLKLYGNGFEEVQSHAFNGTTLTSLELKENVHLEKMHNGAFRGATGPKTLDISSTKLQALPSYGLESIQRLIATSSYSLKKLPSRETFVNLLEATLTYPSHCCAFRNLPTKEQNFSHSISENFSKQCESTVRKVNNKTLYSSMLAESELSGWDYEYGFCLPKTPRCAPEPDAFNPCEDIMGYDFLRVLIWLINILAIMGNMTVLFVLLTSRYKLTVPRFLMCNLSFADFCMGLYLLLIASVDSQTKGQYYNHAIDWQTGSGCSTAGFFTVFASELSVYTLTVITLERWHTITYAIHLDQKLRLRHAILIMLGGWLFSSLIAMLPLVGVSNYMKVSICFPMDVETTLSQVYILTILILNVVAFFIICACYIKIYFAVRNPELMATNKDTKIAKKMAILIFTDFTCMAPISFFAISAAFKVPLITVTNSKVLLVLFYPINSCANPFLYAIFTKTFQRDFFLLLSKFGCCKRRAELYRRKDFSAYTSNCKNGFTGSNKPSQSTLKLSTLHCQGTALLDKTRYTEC
Summary of the method: as §1

[1] = tracer at 0.1μM, listed as amitriptyline-b-2-NB590
[2] = tracer at 1μM, listed as amitriptyline-b-2-NB590

| SMILES | NanoBRET Fold Response (GRM8; tracer 0.1μM) | NanoBRET Fold Response (GRM8; tracer 1μM) | NanoBRET Fold Response (LHCGR; tracer 0.1μM) | NanoBRET Fold Response (LHCGR; tracer 1μM) | NanoBRET Fold Response (XCR1; XCR1, 0.1μM tracer) | NanoBRET Fold Response (XCR1; XCR1, 1μM tracer) | NanoBRET Fold Response (GRM8; 0.1μM tracer) | NanoBRET Fold Response (GRM8; 1μM tracer) | NanoBRET Fold Response (HTR1B; HTR1B, 0.1μM tracer) | NanoBRET Fold Response (HTR1B; HTR1B, 1μM tracer) | NanoBRET Fold Response (CXCR1; CXCR1, 0.1μM tracer) | NanoBRET Fold Response (CXCR1; CXCR1, 1μM tracer) | NanoBRET Fold Response (CCR1; CCR1, 0.1μM tracer) | NanoBRET Fold Response (CCR1; CCR1, 1μM tracer) | NanoBRET Fold Response (LHCGR; 0.1μM tracer) | NanoBRET Fold Response (LHCGR; 1μM tracer) | other results |
| --- | --- | --- | --- | --- | --- | --- | --- | --- | --- | --- | --- | --- | --- | --- | --- | --- | --- |
| CN(C)CCC=C1c2ccccc2CCc2ccc(C(=O)NCCNC(=O)CCOCCOCCOCCOCCNC(=O)CCc3ccc4n3[B-](F)(F)[N+]3=C(c5ccc[nH]5)C=CC3=C4)cc21 [Amitriptyline-b-2-NB590] | 1.01 | 0.99 | 1.05 | 1.00 | – | – | – | – | – | – | – | – | – | – | – | – | NanoBRET Fold Response (XCR1; [1]): 0.92; NanoBRET Fold Response (XCR1; [2]): 0.83; NanoBRET Fold Response (HTR1B; [1]): 1.76; NanoBRET Fold Response (HTR1B; [2]): 1.34; NanoBRET Fold Response (CXCR1; tracer at 0.1μM): 0.97; NanoBRET Fold Response (CXCR1; [2]): 1.11; NanoBRET Fold Response (CCR1; [1]): 0.84; NanoBRET Fold Response (CCR1; tracer at 1μM): 0.97 |
| O=C(CCOCCOCCOCCOCCNC(=O)CCc1ccc2n1[B-](F)(F)[N+]1=C(c3ccc[nH]3)C=CC1=C2)NCCCN1CCN(C2=Nc3cc(Cl)ccc3Nc3ccccc32)CC1 [Clozapine-a-2-NB590] | – | – | – | – | 1.01 | 0.98 | 1.01 | 1.00 | 4.16 | 2.29 | 0.99 | 0.94 | 1.03 | 0.94 | 0.93 | 1.05 | – |
| CN1CCN(C2=Nc3cc(Cl)ccc3Nc3ccc(CNC(=O)CCOCCOCCOCCOCCNC(=O)CCc4ccc5n4[B-](F)(F)[N+]4=C(c6ccc[nH]6)C=CC4=C5)cc32)CC1 [Clozapine-b-2-NB590] | – | – | – | – | 0.94 | 1.18 | 1.01 | 1.02 | 2.07 | 2.97 | 1.00 | 0.99 | 1.04 | 0.98 | 1.06 | 0.99 | – |
| Cc1nc2n(c(=O)c1CCN1CCC(c3noc4cc(F)ccc34)CC1)CCCC2OC(=O)NCCOCCOCCOCCOCCNC(=O)CCc1ccc2n1[B-](F)(F)[N+]1=C(c3ccc[nH]3)C=CC1=C2 (stereo not drawn) [Risperidone-2-NB590] | 1.00 | 1.04 | 0.99 | 1.04 | – | – | – | – | – | – | – | – | – | – | – | – | NanoBRET Fold Response (XCR1; XCR1, tracer 0.1μM): 0.97; NanoBRET Fold Response (XCR1; XCR1, tracer 1μM): 0.88; NanoBRET Fold Response (HTR1B; HTR1B, tracer 0.1μM): 3.33; NanoBRET Fold Response (HTR1B; HTR1B, tracer 1μM): 2.70; NanoBRET Fold Response (CXCR1; CXCR1, tracer 0.1μM): 1.01; NanoBRET Fold Response (CXCR1; CXCR1, tracer 1μM): 0.91; NanoBRET Fold Response (CCR1; CCR1, tracer 0.1μM): 1.00; NanoBRET Fold Response (CCR1; CCR1, tracer 1μM): 0.99 |
